Values quoted from earlier work in US9056899B2 (priority 2008, dated 2015).
Like-named read-outs stand apart in the source and are kept apart here.

Tests used:
Conditions in all cases: cited from earlier work
[1] = test system: BW25113 and gene knockouts
[2] = test system: BW25113 and gene knockouts; remark: listed apart in the source
[3] = test system: BW25113 and gene knockouts from KEIO collection
[4] = test system: BW25113 and gene knockouts from KEIO collection; remark: listed apart in the source

Cc1cc(NS(=O)(=O)c2ccc(N)cc2)no1 [Sulfamethaxazone]
400 µg/mL: MIC Plating ([1]; JW5115 knockout) | MIC Plating ([1]; envC knockout) | MIC Plating ([1]; gpmM knockout) | MIC Plating ([1]; lpdA knockout) | MIC Plating ([1]; recA knockout) | MIC Plating ([1]; tolC knockout) | MIC Plating ([1]; yfgL knockout)
1000 µg/mL: MIC Plating ([1]; BW25113 starting strain)
350 µg/mL: MIC Plating ([1]; nudB knockout) | MIC Plating ([1]; recB knockout) | MIC Plating ([1]; recC knockout) | MIC Plating ([1]; rimK knockout)
600 µg/mL: MIC Plating ([1]; fis knockout)
300 µg/mL: MIC Plating ([1]; dapF knockout) | MIC Plating ([1]; dnaK knockout)
500 µg/mL: MIC Plating ([1]; JW5474 knockout) | MIC Plating ([1]; degP knockout) | MIC Plating ([1]; lptB knockout) | MIC Plating ([1]; pgmB knockout) | MIC Plating ([1]; recG knockout) | MIC Plating ([1]; rplA knockout) | MIC Plating ([1]; rpsU knockout) | MIC Plating ([1]; ybeY knockout) | MIC Plating ([1]; ylcG knockout) | MIC Plating ([1]; ymfI knockout)
>550 µg/mL: MIC Plating ([1]; dcd knockout) | MIC Plating ([1]; resA knockout) | MIC Plating ([1]; xapR knockout) | MIC Plating ([1]; ybgF knockout) | MIC Plating ([1]; yciM knockout) | MIC Plating ([1]; ydjI knockout) | MIC Plating ([1]; yjjY knockout)
550 µg/mL: MIC Plating ([1]; deoT knockout) | MIC Plating ([1]; dksA knockout) | MIC Plating ([1]; hns knockout) | MIC Plating ([1]; pstA knockout) | MIC Plating ([1]; pstS knockout) | MIC Plating ([1]; qmcA knockout) | MIC Plating ([1]; rfaE knockout) | MIC Plating ([1]; rpmF knockout) | MIC Plating ([1]; yciS knockout) | MIC Plating ([1]; ygcO knockout) | MIC Plating ([1]; yiiU knockout) | MIC Plating ([1]; yneE knockout)

gentamicin
>0.5 µg/mL: MIC Plating ([2]; envC knockout) | MIC Plating ([2]; xapR knockout) | MIC Plating ([2]; yfgC knockout)
>0.8 µg/mL: MIC Plating ([2]; JW5360 knockout)
>0.7 µg/mL: MIC Plating ([2]; yciM knockout)
0.8 µg/mL: MIC Plating ([2]; BW25113 starting strain)
0.6 µg/mL: MIC Plating ([2]; rpmE knockout)
0.5 µg/mL: MIC Plating ([2]; hflK knockout) | MIC Plating ([2]; rpoN knockout) | MIC Plating ([2]; sapC knockout) | MIC Plating ([2]; secG knockout) | MIC Plating ([2]; tatC knockout) | MIC Plating ([2]; tolC knockout) | MIC Plating ([2]; tusC knockout) | MIC Plating ([2]; tusD knockout) | MIC Plating ([2]; yidD knockout)
0.7 µg/mL: MIC Plating ([2]; dapF knockout) | MIC Plating ([2]; gpmM knockout) | MIC Plating ([2]; rfaC knockout) | MIC Plating ([2]; rffA knockout) | MIC Plating ([2]; rnt knockout) | MIC Plating ([2]; rplI knockout)

O=C(O)c1cn(C2CC2)c2cc(N3CCNCC3)c(F)cc2c1=O [Ciprofloxacin]
0.005 µg/mL: MIC E-Test ([3]; uvrD knockout) | MIC Plating ([4]; tolC knockout)
0.004 µg/mL: MIC E-Test ([3]; tolC knockout)
0.006 µg/mL: MIC E-Test ([3]; fis knockout) | MIC E-Test ([3]; recG knockout) | MIC E-Test ([3]; xseA knockout) | MIC Plating ([4]; recG knockout) | MIC Plating ([4]; uvrD knockout) | MIC Plating ([4]; xseA knockout)
0.016 µg/mL: MIC E-Test ([3]; BW25113 starting strain)
0.01 µg/mL: MIC Plating ([4]; dksA knockout) | MIC Plating ([4]; pgmB knockout) | MIC Plating ([4]; recN knockout) | MIC Plating ([4]; ruvA knockout)
0.008 µg/mL: MIC E-Test ([3]; recC knockout) | MIC E-Test ([3]; ruvC knockout) | MIC Plating ([4]; acrB knockout) | MIC Plating ([4]; xseB knockout)
0.002 µg/mL: MIC E-Test ([3]; recA knockout)
0.02 µg/mL: MIC Plating ([4]; BW25113 starting strain)
0.00875 µg/mL: MIC Plating ([4]; hrpA knockout) | MIC Plating ([4]; yjjY knockout)
>0.00875 µg/mL: MIC Plating ([4]; fis knockout) | MIC Plating ([4]; qmcA knockout) | MIC Plating ([4]; recA knockout) | MIC Plating ([4]; recC knockout) | MIC Plating ([4]; rimK knockout) | MIC Plating ([4]; rseA knockout) | MIC Plating ([4]; ruvC knockout)
0.0075 µg/mL: MIC Plating ([4]; acrA knockout) | MIC Plating ([4]; deoT knockout) | MIC Plating ([4]; hfq knockout) | MIC Plating ([4]; ihfA knockout) | MIC Plating ([4]; recB knockout) | MIC Plating ([4]; ybgC knockout) | MIC Plating ([4]; ybgF knockout) | MIC Plating ([4]; ychJ knockout) | MIC Plating ([4]; yciM knockout) | MIC Plating ([4]; ygcO knockout)
